Assay results taken from ChEMBL document CHEMBL1201862, “PubChem BioAssay data set” (2004).
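Test compounds were applied to cells in 96-well plates for 48 hours at 5 doses. GI50 = concentration required for 50% inhibition of growth.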 Calls of active or inactive are those of the source. Cut-off read from the data, not from the text of the source: active = GI50 up to about 1.1 µM and inactive = higher.

Legend:
Test in all cases: growth of human tumour cells (NCI), 48 h
TK-10 = test system: TK-10
OVCAR-8 = test system: OVCAR-8
PC-3 = test system: PC-3
MOLT-4 = test system: MOLT-4
HOP-62 = test system: HOP-62
SNB-19 = test system: SNB-19
CAKI-1 = test system: CAKI-1
UO-31 = test system: UO-31
EKVX = test system: EKVX
HCT-116 = test system: HCT-116
CCRF-CEM = test system: CCRF-CEM
NCI/ADR-RES = test system: NCI/ADR-RES
T47D = test system: T47D
OVCAR-4 = test system: OVCAR-4
SF-295 = test system: SF-295
KM12 = test system: KM12
MDA-N = test system: MDA-N
OVCAR-3 = test system: OVCAR-3
HOP-92 = test system: HOP-92
MDA-MB-435 = test system: MDA-MB-435

| SMILES | GI50 (TK-10) | GI50 (OVCAR-8) | GI50 (PC-3) | GI50 (MOLT-4) | GI50 (HOP-62) | GI50 (SNB-19) | GI50 (CAKI-1) | GI50 (UO-31) | GI50 (EKVX) | GI50 (HCT-116) | GI50 (CCRF-CEM) | GI50 (NCI/ADR-RES) | GI50 (T47D) | GI50 (OVCAR-4) | GI50 (SF-295) | GI50 (KM12) | GI50 (MDA-N) | GI50 (OVCAR-3) | GI50 (HOP-92) | GI50 (MDA-MB-435) |
| --- | --- | --- | --- | --- | --- | --- | --- | --- | --- | --- | --- | --- | --- | --- | --- | --- | --- | --- | --- | --- |
| C/C(=N\Nc1nc2cc(C(F)(F)F)ccc2s1)c1ccccn1 | 2.52 µM (inactive) | 0.0621 µM (active) | 1.67 µM (inactive) | 0.0264 µM (active) | 2.41 µM (inactive) | 0.968 µM (active) | 0.0537 µM (active) | 0.0316 µM (active) | 0.0431 µM (active) | 0.0783 µM (active) | 0.0853 µM (active) | 0.291 µM (active) | 0.239 µM (active) | 0.321 µM (active) | 0.408 µM (active) | 0.526 µM (active) | 1.06 µM (active) | 0.826 µM (active) | 0.593 µM (active) | 0.469 µM (active) |
| Cc1c(-c2ccccc2)[nH]c2ccc(Cl)cc2c1=O | 36.6 µM (inactive) | 22.3 µM (inactive) | 47.6 µM (inactive) | 22 µM (inactive) | 19.1 µM (inactive) | > 100 µM (inactive) | < 0.01 µM (active) | 0.252 µM (active) | 47.4 µM (inactive) | 17.6 µM (inactive) | 55.8 µM (inactive) | 29.5 µM (inactive) | 19.4 µM (inactive) | 21.8 µM (inactive) | 30.8 µM (inactive) | 0.263 µM (active) | 17.4 µM (inactive) | 17.1 µM (inactive) | 20.4 µM (inactive) | 16.4 µM (inactive) |
| O=C1Nc2ccc([N+](=O)[O-])cc2/C1=N/NC(=S)Nc1ccc([N+](=O)[O-])cc1 | 24.7 µM (inactive) | 31.5 µM (inactive) | 24.2 µM (inactive) | 35.9 µM (inactive) | 22.6 µM (inactive) | 26.2 µM (inactive) | 21.6 µM (inactive) | 18 µM (inactive) | 26.2 µM (inactive) | 20.4 µM (inactive) | 18.7 µM (inactive) | 20.5 µM (inactive) | 19.1 µM (inactive) | 19.3 µM (inactive) | 19.8 µM (inactive) | 18.6 µM (inactive) | 17.9 µM (inactive) | 22.9 µM (inactive) | 18.5 µM (inactive) | 18.4 µM (inactive) |
| CC1(C)CCC(C)(C)c2cc(NC(=O)c3ccc(C(=O)O)cc3)ccc21 [TAMIBAROTENE] | 25.1 µM (inactive) | 41.5 µM (inactive) | 25.8 µM (inactive) | 30.7 µM (inactive) | 23.6 µM (inactive) | 32.8 µM (inactive) | 47.6 µM (inactive) | 17.2 µM (inactive) | 37.9 µM (inactive) | 18.7 µM (inactive) | 16.8 µM (inactive) | 31.9 µM (inactive) | 33.7 µM (inactive) | 31.1 µM (inactive) | 22.6 µM (inactive) | 20.7 µM (inactive) | 25.6 µM (inactive) | 22.4 µM (inactive) | 24.7 µM (inactive) | 25.9 µM (inactive) |
